# Earlier results, collected in US20240130675A1, “Methods for Treating Autism Spectrum Disorder” (The General Hospital Corporation, priority 2021, published 2024).
# Where a name gives a salt, the structure may show the parent alone.
# How the values were obtained:
# autism = conditions: RUPP Autism Network study; cited from earlier work
# ASD symptoms [1] = conditions: 5-19 year-olds, four weeks; only reflected in CGI, not in ABC-CV; cited from earlier work
# ASD children = conditions: cited from earlier work
# youth with ASD = conditions: cited from earlier work
# [2] = test system: older adolescents and young adults with ASDs; conditions: cited from earlier work
# ASD = conditions: in vivo; cited from earlier work
# ASD symptoms [3] = conditions: RCT; cited from earlier work
smiles,measurement,setting,value
Cc1nc2n(c(=O)c1CCN1CCC(c3noc4cc(F)ccc34)CC1)CCCC2 [risperidone],"Response rate, treatment group",autism,69.4%
NC12CC3CC(CC(C3)C1)C2 [amantadine hydrochloride],ASD symptoms vs placebo,ASD symptoms [1],improvement in ASD symptoms
"CC(=O)N[C@@H](CS)C(=O)O [NAC, N-Acetylcysteine]",ABC irritability subscale score vs placebo,ASD children,significant improvement
same,Social impairment,youth with ASD,no significant impact on social impairment
N[C@@H]1CONC1=O [D-Cycloserine],"Stereotypic symptoms, Aberrant Behavior Checklist subscale 3",[2],improved stereotypic symptoms
same,Social Responsiveness Scale and Aberrant Behavior Checklist,ASD,statistically and clinically significant improvement
Nc1nnc(-c2cccc(Cl)c2Cl)c(N)n1 [lamotrigine],"Improvements vs placebo on Autism Behavior Checklist, Aberrant Behavior Checklist, Vineland, PL-ADOS, CARS",ASD symptoms [3],no significant differences in improvements
